Laboratory results published in US12553889B2, “Small molecules targeting the intrinsically disordered structural ensemble of α-synuclein protect against diverse α-synuclein mediated dysfunctions” (The Regents of the University of California, priority 2019, dated 2026).
Entries after “also recorded” stand apart in the source; their conditions may differ.

Columns and labels:
[1] = system: H4 neuroglioma cells over-expressing αSyn; conditions: earlier report; cited from earlier work
[2] = system: H4 neuroglioma cells over-expressing αSyn; experiment: Phagocytosis assay; assay type: cell-based, human; conditions: for phagocytosis restored, percent of that in cells with endogenous αSyn levels (control): phagocytosis inhibited by αSyn overexpression; for reversal of αSyn mediated inhibition of phagocytosis: 100 nM
Procedure: A human neuroglioma H4 cell-derived cell line stably over-expressing αSyn from a tetracycline inducible promoter was generated using the tet inducible TRex system (Invitrogen division of Life Technologies) and grown in serum-free X-VIVO media (Lonza Group, Basel, Switzerland). Cells were seeded in 96-well plates at densities yielding 75 to 90% confluency during the phagocytosis assay. The next day, compound was added along with 5 μg/ml tetracycline to induce αSyn overexpression. Cells were cultured overnight and the next day were fed […] red fluorescent beads (Invitrogen, Carlsbad, CA) for 90 minutes at a cell-to-bead ratio of 1:10. Plates were gently washed with 100 μl/well media twice, fixed and stained with HEMA3 (Thermo Fisher, Waltham, MA). Plates were dried overnight and read on an ArrayScan (Thermo Fisher, Waltham, MA). As the HEMA3 stain absorbs light, the internalized beads are less fluorescent than the outside beads. Tet/non-tet and 484228 samples were run on each plate.

αSyn [3] = biological target: T1, αSyn (Homo sapiens, UniProt P37840); design: made in house; host or cells: E. coli; conditions: prior study (Toth et al 2014); cited from earlier work
αSyn [4] = biological target: T1, αSyn; design: made in house; host or cells: E. coli; conditions: prior study (Toth et al 2014); cited from earlier work; remark: listed apart in the source
αSyn [5] = biological target: T1, αSyn; experiment: αSyn fibrillization assay (Thioflavin T fluorescence); assay type: biochemical; design: made in house; host or cells: E. coli BL21(DE3), pET-21d; conditions: compound at 300 μM, 70 μM αSyn, vs 0.5% DMSO control
Procedure: Fibrillization assays. Prior to each aggregation assay, purified αSyn at 5 mg/mL was treated with 6M guanidine and dialyzed 36 hours in a 3500 MW cutoff Slide-A-lyzer with three changes of 20 mM sodium phosphate and 100 mM NaCl pH 7.4 buffer. αSyn was centrifuged at 130,000 g for 40 minutes in a Beckman Ultracentrifuge to remove seeding species and supernatant used for assays. For initial testing, 60 mM compound in DMSO was diluted to 300 μM in 0.5% DMSO and controls contained equivalent DMSO concentrations. Assay samples contained 20 μM Thioflavin T, filtered through a 0.45 μm Acrodisc filter prior to each assay, 70 μM αSyn in 20 mM sodium phosphate and 100 mM NaCl pH 7.4. One teflon bead, (0.125″ PTFE, Grade 2 polished) was placed in each well of a 96 well black with clear bottom assay plate (Corning) in a total volume of 500 μL. The plate was sealed with Mylar and parafilm, placed at 37° C. in a Tecan F200Pro Plate Reader and shaken at an amplitude of 6 mm for 120 hours continuously except for a brief time during reading of the plate. Thioflavin T fluorescence was detected by excitation at 440 nm and reading emissions at 485 nm each 60 minutes throughout the assay. To generate αSyn seeds for the seeding assays, αSyn at 10 mg/mL was incubated with stirring at 43° C. for 24 hours followed by exhaustive sonication. 1% (by mass) of seeds were added to the fibrillization assay. Samples were plated in quadruplicate, and the replicates averaged for each experiment for plotted data. Data were analyzed in Excel using XL-fit sigmoidal model #600 and when normalized, comparing fluorescence values at 50 hours for compounds as a percentage of DMSO control.
α-Syn for the Fibrillization assay. Wildtype human αSyn was produced from a pET-21d plasmid (Millipore, Burlington, MA) in E. coli BL21(DE3) cells induced by addition of 1 mM […] and incubated at 16° C. overnight. Cells were harvested by centrifugation at 4,000×g for 10 minutes and stored at −80° C. Frozen cells expressing αSyn protein were resuspended in 50 mM Tris, pH 7.5, 1 mM TCEP, 1 mM EDTA, and 1 mM L-Methionine and lysed using a microfluidizer. Lysate was centrifuged at 7000×g for 0.5 hours at 21° C. The supernatant was boiled in a water bath for 15 minutes, cooled on ice and centrifuged at 45,000 g for 30 min. The supernatant was filtered through a 0.2 μm Corning filter and subjected to ion exchange chromatography using a Capto ImpRes Q (GE Healthcare, Upssala, Sweden) anion exchange (IEX) column at ambient temperature. The column was eluted with a gradient of 100 column volumes from 0 to 1M NaCl using an AKTA Explorer 100 Liquid Chromatography System (GE Healthcare, Uppsala, Sweden). Pure αSyn fractions were desalted to 50 mM KPO4, pH 7.5 and 50 mM NaCl using PD-10 columns (GE Healthcare, Chicago, IL) and concentrated to 5 mg/mL or 10 mg/ml (3K MWCO, Amicon Ultra, Millipore, Burlington, MA).
Statistical Analysis of compound activity in Fibrillization assays. For the analyses of compound activity in the αSyn fibrillization assay, the relative fluorescence unit (RFU) data obtained from compounds were compared to those of DMSO, to identify those that are statistically different from DMSO at various time points. Each experiment contained 4 replicates of each compound and of DMSO control. […] A repeated measures analysis of variance was performed on logarithmic transformed data using a linear mixed effects model which included Compound, Time, Replicate (Compound) and Compound*Time. The covariance structure across time that minimized the corrected Akaike Information Criterion (AICC) was used and the Kenward and Roger method was used to determine the appropriate degrees of freedom. Each compound mean was compared to the DMSO mean using Bonferroni multiplicity adjusted t-tests. Statistical analyses were conducted using the MIXED procedure in SAS 9.1 (SAS Institute Inc. Cary, NC, USA). Statistical significance refers to p-value<0.05.

| SMILES | phagocytosis restored, percent of that in cells with endogenous αSyn levels (control) [2] | reversal of αSyn mediated inhibition of phagocytosis [2] | impact on αSyn fibrillization (thioflavin fluorescence signal) (αSyn [5]) | also measured |
| --- | --- | --- | --- | --- |
| O=S(=O)(Nc1ccc(F)cc1)c1ccccc1 [Compound 484228, N-(4-fluorophenyl)benzenesulfonamide] | ≤ 80% | – | – | restoration of phagocytosis in the face of αSyn overexpression [1]: restored normal phagocytosis; reversal of αSyn over-expression mediated neurodegeneration (αSyn [3]): protective activity; impact on aggregation of the recombinant protein (αSyn [4]): without impact on aggregation |
| NC(=O)[C@@H](NC(=O)c1csc(-c2ccccc2)n1)C1CCCCC1 [Compound 573419, (S)-N-(2-amino-1-cyclohexyl-2-oxoethyl)-2-phenylthiazole-4-carboxamide] | – | complete reversal | – | – |
| CNC(=O)CC(N)c1ccc(-c2ccccc2)cc1 (stereo not drawn) [Compound 581674, 3-([1,1′-biphenyl]-4-yl)-3-amino-N-methylpropanamide] | 100% | – | inhibit fibrillization; also recorded: blocks αSyn fibrillization | – |
| NC(=O)[C@H](Cc1c[nH]cn1)NC(=O)c1ccccn1 [Compound 573418, (S)-N-(1-amino-3-(1H-imidazol-4-yl)-1-oxopropan-2-yl)picolinamide] | – | complete reversal | – | – |
| CNC(=O)C[C@H](N)Cc1cccc2ccccc12 [Compound 573416, (R)-3-amino-N-methyl-4-(naphthalen-1-yl)butanamide] | – | – | no impact on αSyn fibrillization | – |
